From BindingDB's records for doi:10.1074/jbc.M703586200 (University of Minnesota, 2007)

Experiments:
[1] = target: T1, Tissue factor (Homo sapiens, UniProt P13726); assay: Inhibition of LPS-induced tissue factor activity in HUVEC preincubated for 4 hrs assessed after 4 hrs of LPS challenge by one stage clotting assay
[2] = target: T1, Tissue factor; assay: Inhibition of TNF-alpha-induced tissue factor activity in HUVEC preincubated for 4 hrs assessed after 4 hrs of TNFalpha challenge by one stage clotting assay

T1 sequence (P13726 whole entry): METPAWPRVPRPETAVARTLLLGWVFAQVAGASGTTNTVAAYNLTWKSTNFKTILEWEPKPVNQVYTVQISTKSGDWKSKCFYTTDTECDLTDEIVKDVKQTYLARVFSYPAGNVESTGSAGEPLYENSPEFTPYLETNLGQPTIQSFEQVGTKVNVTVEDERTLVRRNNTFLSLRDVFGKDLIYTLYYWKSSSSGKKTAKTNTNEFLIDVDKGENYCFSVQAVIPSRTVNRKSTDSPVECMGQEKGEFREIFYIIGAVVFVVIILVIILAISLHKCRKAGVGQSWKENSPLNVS

Compound	IC50 [1]	IC50 [2]
Nc1ccccc1NC(=O)c1ccc(CNC(=O)OCc2cccnc2)cc1 [benzamide-type inhibitor, 3]	6 µM	10 µM
CCC(=O)CCCCC[C@@H]1NC(=O)[C@H]2CCCCN2C(=O)[C@H]([C@@H](C)CC)NC(=O)[C@H](Cc2cn(OC)c3ccccc23)NC1=O [(6S,9S,12S,14aR)-6-((S)-sec-Butyl)-9-(1-methoxy-1H-indol-3-ylmethyl)-12-(6-oxo-octyl)-decahydro-4a,7,10,13-tetraaza-benzocyclododecene-5,8,11,14-tetraone]	0.15 µM	0.2 µM

More lines, in order of falling IC50 [2], values ahead:

IC50 [1]	IC50 [2]	Compound
1000 µM	2000 µM	CCCC(=O)O
1500 µM	2000 µM	CCCC(CCC)C(=O)O [Valproinsaeure]
–	0.03 µM	CC(=CC(C)C=CC(=O)NO)C(=O)c1ccc(N(C)C)cc1 (centres undefined)
